According to patent US11013696B2, “Lipids and lipid compositions for the delivery of active agents” (Novartis AG, priority 2013, dated 2021):
Structures can show the parent of a compound that is named as a salt.

Test: siRNA encapsulation in lipid nanoparticles (SYBR Gold)
Type: physicochemical
Conditions: Table 2; FVII siRNA in LNP with the cationic lipid
Procedure: The lipid nanoparticles (LNPs) were formed by mixing equal volumes of lipids dissolved in alcohol with siRNA dissolved in a citrate buffer by an impinging jet process. The lipid solution contains a cationic lipid compound of the invention, a helper lipid (cholesterol), an optional neutral lipid (DSPC) and a PEG (PEG) lipid at a concentration of 8-16 mg/mL with a target of 12 mg/mL in an alcohol. The siRNA to total lipid ratio is approximately 0.05 (wt/wt). Where a LNP formulation contains four lipid components, the molar ratios of the lipids ranges from 20 to 70 mole percent for the cationic lipid with a target of 40-60, the mole percent of helper lipid ranges from 20 to 70 with a target of 30 to 50, the mole percent of neutral lipid ranges from 0-30, the mole percent of PEG lipid has a range from 1 to 6 with a target of 2 to 5. The concentration of siRNA solution ranges from 0.7 to 1.0 mg/mL with a target of 0.8 to 0.9 mg/mL in a sodium citrate: sodium chloride buffer pH 4-6, with a target of 4.5-5.5. The LNPs are formed by mixing equal volumes of lipid solution in ethanol with siRNA dissolved in a citrate buffer by an impinging jet process through a mixing device with ID ranging from 0.25 to 2.0 mm at a flow rate from 10 to 640 mL/min. The mixed LNP solution is held at room temperature for 0-24 hrs prior to a dilution step. The solution is then concentrated and diafiltered with suitable buffer by ultrafiltration or dialysis process using membranes with a MW cutoff from 30 to 500 KD. The final product is sterile filtered and stored at 4° C.
The lipid nanoparticles (LNPs) were formed by mixing equal volumes of lipids dissolved in alcohol with siRNA dissolved in a citrate buffer by an impinging jet process. The lipid solution contains a cationic lipid compound of the invention, a helper lipid (cholesterol), an optional neutral lipid (DSPC) and a stealth lipid (5010, S024, S027, or S031) at a concentration of 8-16 mg/mL with a target of 12 mg/mL in an alcohol. The siRNA to total lipid ratio is approximately 0.05 (wt/wt). Where a LNP formulation contains four lipid components, the molar ratios of the lipids ranges from 20 to 70 mole percent for the cationic lipid with a target of 40-60, the mole percent of helper lipid ranges from 20 to 70 with a target of 30 to 50, the mole percent of neutral lipid ranges from 0-30, the mole percent of PEG lipid has a range from 1 to 6 with a target of 2 to 5. The concentration of siRNA solution ranges from 0.7 to 1.0 mg/mL with a target of 0.8 to 0.9 mg/mL in a sodium citrate: sodium chloride buffer pH 4-6, with a target of 4.5-5.5. The LNPs are formed by mixing equal volumes of lipid solution in ethanol with siRNA dissolved in a citrate buffer by an impinging jet process through a mixing device with ID ranging from 0.25 to 2.0 mm at a flow rate from 10 to 640 mL/min. The mixed LNP solution is held at room temperature for 0-24 hrs prior to a dilution step. The solution is then concentrated and diafiltered with suitable buffer by ultrafiltration process using membranes with a MW cutoff from 30 to 500 KD. The final product is sterile filtered and stored at 4° C.
SYBR Gold flourescence reagent is used for the determination of siRNA encapsulation in the DLP's. DLP's with and without triton x-100 are used to determine the free siRNA and total siRNA amounts. DLP's samples with and without triton X-100 were excited at 485 nm and flourescence emission is measured at 530 nm. Encapsulation efficiency is calculated based on the following formula: Encapsulation efficiency:[([…])/(total siRNA concentration)]×100% Encapsulation Data

SMILES | % encapsulation siRNA FVII [%]
CCCCC/C=C\C/C=C\CCCCCCCCC(CCOC(=O)CCCCCCC/C=C\C/C=C\CCCCC)OC(=O)CCN(C)C (stereo not drawn) [Example 49, (9Z,12Z)-(12Z,15Z)-3-((3-(dimethylamino)propanoyl)oxy)henicosa-12,15-dien-1-yl octadeca-9,12-dienoate] | 88.4
CCCCCCCCCCCCC(CCOC(=O)CCC(COC(=O)CCCCCCC)COC(=O)CCCCCCC)OC(=O)OCCCN(CC)CC (stereo not drawn) [Example 4, 2-(10-dodecyl-3-ethyl-8,14-dioxo-7,9,13-trioxa-3-azahexadecan-16-yl)propane-1,3-diyl dioctanoate] | 88.6
CCCCCCCCCCCCC(CCOC(=O)C=C(CCCCCCCC)CCCCCCCC)OC(=O)OCCCN(C)C (stereo not drawn) [Example 25, 3-(((3-(dimethylamino)propoxy)carbonyl)oxy)pentadecyl 3-octylundec-2-enoate] | 87.1
CCCCCCCCCCCCC(CCOC(=O)CCCCCCCC(CCCCC)CCCCC)OC(=O)OCCCN(C)C (stereo not drawn) [Example 27, 3-(((3-(dimethylamino)propoxy)carbonyl)oxy)pentadecyl 9-pentyltetradecanoate] | 86.6
CCCCC/C=C\C/C=C\CCCCCCCCC(CCOC(=O)CCCC(CCCCCCC)CCCCCCC)OC(=O)CCCN(C)C (stereo not drawn) [Example 51, (12Z,15Z)-3-((4-(dimethylamino)butanoyl)oxy)henicosa-12,15-dien-1-yl 5-heptyldodecanoate] | 89.2
CCCCCCCCCCCCC(CCOC(=O)CCCCCCC(OCCCC)OCCCC)OC(=O)OCCCN(CC)CC (stereo not drawn) [Example 20, 3-(((3-(diethylamino)propoxy)carbonyl)oxy)pentadecyl 8,8-dibutoxyoctanoate] | 76.7
CCCCCCCCC(CCCCCCCC)CC(=O)OCCC(CCCCCCCCCCOC(=O)CCCCCCC)OC(=O)OCCCN(C)C (stereo not drawn) [Example 61, 3-(((3-(dimethylamino)propoxy)carbonyl)oxy)-13-(octanoyloxy)tridecyl 3-octylundecanoate] | 85.5
CCCCCCCCCCCCC(CCOC(=O)CCCCC=C(CCCCCC)CCCCCC)OC(=O)OCCCN(C)C (stereo not drawn) [Example 26, 3-(((3-(dimethylamino)propoxy)carbonyl)oxy)pentadecyl 7-hexyltridec-6-enoate] | 89.8
CCCCC/C=C\C/C=C\CCCCCCCC(=O)OCCC(CCCCCCCCCCOC(=O)CCCCCCC)OC(=O)OCCCN(C)C (stereo not drawn) [Example 60, (9Z,12Z)-3-(((3-(dimethylamino)propoxy)carbonyl)oxy)-13-(octanoyloxy)tridecyl octadeca-9,12-dienoate] | 82.4
CCCCCCCCCCCCC(CCOC(=O)CCCC(CCCCCCC)CCCCCCC)OC(=O)OCCCN(C)C (stereo not drawn) [Example 29, 3-(((3-(dimethylamino)propoxy)carbonyl)oxy)pentadecyl 5-heptyldodecanoate] | 86.1
CCCCC/C=C\C/C=C\CCCCCCCCOC(=O)OCCC(CCCCCCCC/C=C\C/C=C\CCCCC)OC(=O)CCN(C)C (stereo not drawn) [Example 54, (12Z,15Z)-1-((((9Z,12Z)-octadeca-9,12-dien-1-yloxy)carbonyl)oxy)henicosa-12,15-dien-3-yl 3-(dimethylamino)propanoate] | 88.6
CCCCCCCCCCCCC(COC(=O)CCC(OCC(CC)CCCC)OCC(CC)CCCC)OC(=O)OCCCN(CC)CC (stereo not drawn) [Example 48, 2-(((3-(diethylamino)propoxy)carbonyl)oxy)tetradecyl 4,4-bis((2-ethylhexyl)oxy)butanoate] | 89.3
CCCCC/C=C\C/C=C\CCCCCCCCC(CCOC(=O)CC(CCCCCCCC)CCCCCCCC)OC(=O)CCCN(C)C (stereo not drawn) [Example 50, (12Z,15Z)-3-((4-(dimethylamino)butanoyl)oxy)henicosa-12,15-dien-1-yl 3-octylundecanoate, formate salt] | 85.3

More lines, now with the values ahead:

% encapsulation siRNA FVII [%] | SMILES
91.4 | CCCCCCCCCCCCC(CCC(=O)OC(COC(=O)CCCCCCCCC)COC(=O)CCCCCCCCC)OC(=O)OCCCN(CC)CC (stereo not drawn) [Example 90, 2-((4-(((3-(diethylamino)propoxy)carbonyl)oxy)hexadecanoyl)oxy)propane-1,3-diyl bis(decanoate)]
86.9 | CCCCC/C=C\C/C=C\CCCCCCCCC(CCC(=O)OC(COC(=O)CCCCCCC)COC(=O)CCCCCCC)OC(=O)OCCCN(CC)CC (stereo not drawn) [Example 95, 2-(((13Z,16Z)-4-(((3-(diethylamino)propoxy)carbonyl)oxy)docosa-13,16-dienoyl)oxy)propane-1,3-diyl dioctanoate]
48.8 | CCCCC/C=C\C/C=C\CCCCCCCC(=O)OCC(COC(=O)CCCCCCC/C=C\C/C=C\CCCCC)OC(=O)CCC(CCCCCCCCCCCC)OC(=O)OCCCN(CC)CC (stereo not drawn) [Example 81, (9Z,9′Z,12Z,12′Z)-2-((4-(((3-(diethylamino)propoxy)carbonyl)oxy)hexadecanoyl)oxy)propane-1,3-diyl bis(octadeca-9,12-dienoate)]
83.4 | CCCCCCCC(=O)OCCCCCCCCCCC(CCOC(=O)CCCCCCCC(CCCCC)CCCCC)OC(=O)OCCCN(C)C (stereo not drawn) [Example 66, 3-(((3-(dimethylamino)propoxy)carbonyl)oxy)-13-(octanoyloxy)tridecyl 9-pentyltetradecanoate]
85.7 | CCCCCCCCCCCCCC(=O)OCC(COC(=O)CCCCCCCCCCCCC)OC(=O)CCC(CCCCCCCCCCCC)OC(=O)OCCCN(C)C (stereo not drawn) [Example 85, 2-((4-(((3-(dimethylamino)propoxy)carbonyl)oxy)hexadecanoyl)oxy)propane-1,3-diyl ditetradecanoate]
77.5 | CCCCCCCCCCCCC(CCC(=O)OC(COC(=O)CCCCCCCCCCC)COC(=O)CCCCCCCCCCC)OC(=O)OCCCN(C)C (stereo not drawn) [Example 87, 2-((4-(((3-(dimethylamino)propoxy)carbonyl)oxy)hexadecanoyl)oxy)propane-1,3-diyl didodecanoate]
62.5 | CCCCC/C=C\C/C=C\CCCCCCCC(=O)OCCCCC(CC(CCCCCCCC)CCCCCCCC)OC(=O)OCCCN(C)C (stereo not drawn) [Example 72, (9Z,12Z)-5-(((3-(dimethylamino)propoxy)carbonyl)oxy)-7-octylpentadecyl octadeca-9,12-dienoate]
75.2 | CCCCCCCC(CCCCCCC)CCCC(=O)OCCC(CCCCCCCCCCO)OC(=O)OCCCN(C)C (stereo not drawn) [Example 62, 3-(((3-(dimethylamino)propoxy)carbonyl)oxy)-13-hydroxytridecyl 5-heptyldodecanoate]
